Values of other authors, collected in patent US20020009704A1, “Oocyte vitrification technique” (priority 2000, published 2002).

Test system: bovine oocytes

OCCO [ethylene glycol]
toxicity for bovine oocytes: relatively low toxicity
